Test results published in patent US11000033B2, “Ketone or oxime compound, and herbicide” (NISSAN CHEMICAL CORPORATION, priority 2014, dated 2021).

Key:
Type in all cases: in vivo
Digitaria ciliaris = assay: Test Example 5: herbicidal effect by foliage application, plastic box (symbol F); details: 320 g/ha, 3 weeks after application
Description: (§1) Herbicidal Effect Test by Foliage Application
(§2) Sterilized diluvial soil was placed in a plastic box having a length of 21 cm, a width of 13 cm, and a depth of 7 cm. Each of the seeds of Digitaria ciliaris, Setaria viridis, Echinochloa crus-galli var. crus-galli, Avena fatua, Alopecurus myosuroides, Lolium multiflorum Lam., Apera spica-venti, Abutilon theophrasti, Amaranthus retroflexus, Chenopodium album, Stellaria media, Galium spurium, Veronica persica, corn, soybean, rice plant, wheat, beet, and rapeseed was sowed in a spot-like manner and was covered with the soil of a thickness of about 1.5 cm. Thereafter, the plants were grown in the greenhouse of 25° C. to 30° C. After the plants were grown for 14 days, the emulsion agent of the compound of the present invention prepared in accordance with Formulation Example 2 was diluted with water so as to be a predetermined herbicide amount and the diluted emulsion agent was uniformly applied to a foliage part with a small-size spray. 3 weeks later from the herbicide application, the effect to each plant was investigated in accordance with the criteria of Test Example 1.

Setaria viridis = assay: Test Example 5: herbicidal effect by foliage application, plastic box (symbol G); details: 320 g/ha, 3 weeks after application
Description: as §1, §2

[1] = system: Echinochloa crus-galli var. crus-galli; assay: Test Example 5: herbicidal effect by foliage application, plastic box (symbol H); details: 320 g/ha, 3 weeks after application
Description: as §1, §2

Avena fatua = assay: Test Example 5: herbicidal effect by foliage application, plastic box (symbol I); details: 320 g/ha, 3 weeks after application
Description: as §1, §2

Alopecurus myosuroides = assay: Test Example 5: herbicidal effect by foliage application, plastic box (symbol J); details: 320 g/ha, 3 weeks after application
Description: as §1, §2

Lolium multiflorum Lam. = assay: Test Example 5: herbicidal effect by foliage application, plastic box (symbol K); details: 320 g/ha, 3 weeks after application
Description: as §1, §2

Apera spica-venti = assay: Test Example 5: herbicidal effect by foliage application, plastic box (symbol L); details: 320 g/ha, 3 weeks after application
Description: as §1, §2

Abutilon theophrasti = assay: Test Example 5: herbicidal effect by foliage application, plastic box (symbol M); details: 320 g/ha, 3 weeks after application
Description: as §1, §2

Amaranthus retroflexus = assay: Test Example 5: herbicidal effect by foliage application, plastic box (symbol N); details: 320 g/ha, 3 weeks after application
Description: as §1, §2

Chenopodium album = assay: Test Example 5: herbicidal effect by foliage application, plastic box (symbol O); details: 320 g/ha, 3 weeks after application
Description: as §1, §2

Stellaria media = assay: Test Example 5: herbicidal effect by foliage application, plastic box (symbol P); details: 320 g/ha, 3 weeks after application
Description: as §1, §2

Veronica persica = assay: Test Example 5: herbicidal effect by foliage application, plastic box (symbol R); details: 320 g/ha, 3 weeks after application
Description: as §1, §2

corn = assay: Test Example 5: effect on crop by foliage application, plastic box (symbol c); details: 320 g/ha, 3 weeks after application
Description: as §1
(§3) Sterilized diluvial soil was placed in a plastic box having a length of 21 cm, a width of 13 cm, and a depth of 7 cm. Each of the seeds of Digitaria ciliaris, Setaria viridis, Echinochloa crus-galli var. crus-galli, Avena fatua, Alopecurus myosuroides, Lolium multiflorum Lam., Apera spica-venti, Abutilon theophrasti, Amaranthus retroflexus, Chenopodium album, Stellaria media, Galium spurium, Veronica persica, corn, soybean, rice plant, wheat, beet, and rapeseed was sowed in a spot-like manner and was covered with the soil of a thickness of about 1.5 cm. Thereafter, the plants were grown in the greenhouse of 25° C. to 30° C.

soybean = assay: Test Example 5: effect on crop by foliage application, plastic box (symbol d); details: 320 g/ha, 3 weeks after application
Description: as §1, §3

rice plant = assay: Test Example 5: effect on crop by foliage application, plastic box (symbol b); details: 320 g/ha, 3 weeks after application
Description: as §1, §3

wheat = assay: Test Example 5: effect on crop by foliage application, plastic box (symbol e); details: 320 g/ha, 3 weeks after application
Description: as §1, §3

beet = assay: Test Example 5: effect on crop by foliage application, plastic box (symbol f); details: 320 g/ha, 3 weeks after application
Description: as §1, §3

rapeseed = assay: Test Example 5: effect on crop by foliage application, plastic box (symbol g); details: 320 g/ha, 3 weeks after application
Description: as §1, §3

[2] = system: Echinochloa crus-galli var. crus-galli; assay: Test Example 3: herbicidal effect by foliage application, Wagner pot (symbol H); details: application herbicide amount 320 g/ha
Method: as §1
(§4) After alluvial soil was placed into 1/10000 are of Wagner pot, water was poured and mixed to form a submerged condition having a water depth of 0.1 cm to 0.5 cm. Seeds of Echinochloa crus-galli var. crus-galli, Leptochloa chinensis, Cyperus difformis, and rice were sowed and the pot was placed in the greenhouse of 25° C. to 30° C. to grow the plants. After the plants were grown for 14 days, the emulsion agent of the compound of the present invention prepared in accordance with Formulation Example 2 was diluted with water so as to be a predetermined herbicide amount and the diluted emulsion agent was uniformly applied to a foliage part with a small-size spray. 3 weeks later from the herbicide application, the effect to each plant was investigated in accordance with the criteria of Test Example 1.

Leptochloa chinensis = assay: Test Example 3: herbicidal effect by foliage application, Wagner pot (symbol D); details: application herbicide amount 320 g/ha
Method: as §1, §4

Cyperus difformis = assay: Test Example 3: herbicidal effect by foliage application, Wagner pot (symbol E); details: application herbicide amount 320 g/ha
Method: as §1, §4

[3] = system: directly sowed rice plant; assay: Test Example 3: effect on crop by foliage application, Wagner pot (symbol b); details: application herbicide amount 320 g/ha
Method: as §1
After alluvial soil was placed into 1/10000 are of Wagner pot, water was poured and mixed to form a submerged condition having a water depth of 0.1 cm to 0.5 cm. Seeds of Echinochloa crus-galli var. crus-galli, Leptochloa chinensis, Cyperus difformis, and rice were sowed and the pot was placed in the greenhouse of 25° C. to 30° C. to grow the plants.

[4] = system: Echinochloa oryzacola Vasing.; assay: Test Example 1: herbicidal activity, application before weed generation in submerged conditions (symbol A); details: application herbicide amount 320 g/ha
Description: (§5) Herbicidal Activity Test by Application Before Weed Generation in Submerged Conditions
(§6) After alluvial soil was placed into 1/10000 are of Wagner pot, water was poured and mixed to form a submerged condition having a water depth of 4 cm. Seeds of Echinochloa oryzacola Vasing., Scirpus juncoides, and Monochoria vaginalis were sowed in a mixed manner in the above pot and thereafter 2.5 leaf stage rice plant seedlings were transplanted thereto. On the day of sowing seeds, the emulsion agent of the compound of the present invention prepared in accordance with Formulation Example 2 was diluted with water so as to be a predetermined herbicide amount and the diluted emulsion agent was applied to the surface of the water. The pot was placed in a greenhouse of 25° C. to 30° C. to grow plant. 3 weeks later from the herbicide application, the effect to each plant was investigated in accordance with the following criteria.
(§7) 5 Herbicidal ratio of 90% or more (almost completely withered)
(§8) 4 Herbicidal ratio of 70% or higher and lower than 90%
(§9) 3 Herbicidal ratio of 40% or higher and lower than 70%
(§10) 2 Herbicidal ratio of 20% or higher and lower than 40%
(§11) 1 Herbicidal ratio of 5% or higher and lower than 20%
(§12) 0 Herbicidal ratio of 5% or lower (almost no effect)

Scirpus juncoides = assay: Test Example 1: herbicidal activity, application before weed generation in submerged conditions (symbol B); details: application herbicide amount 320 g/ha
Description: as §5, §6, §7, §8, §9, §10, §11, §12

Monochoria vaginalis = assay: Test Example 1: herbicidal activity, application before weed generation in submerged conditions (symbol C); details: application herbicide amount 320 g/ha
Description: as §5, §6, §7, §8, §9, §10, §11, §12

transplanted rice plant = assay: Test Example 1: effect on crop, application before weed generation in submerged conditions (symbol a); details: application herbicide amount 320 g/ha
Method: as §5
as §6, with “On the day of sowing seeds, the emulsion agent of the compound of the present invention prepared in accordance with Formulation Example 2 was diluted with water so as to be a predetermined herbicide amount and the diluted emulsion agent was applied to the surface of the water.” left out
as §7, §8, §9, §10, §11, §12

Compound: CCC(C(C)=O)(C(=O)OC)C1CC(O)=C(c2c(C)cc(C)cc2C)C1=O (centres unmarked) [2-023]
- F: Digitaria ciliaris, herbicidal effect grade (Digitaria ciliaris): 0 (Herbicidal ratio of 5% or lower (almost no effect))
- G: Setaria viridis, herbicidal effect grade (Setaria viridis): 0 (Herbicidal ratio of 5% or lower (almost no effect))
- H: Echinochloa crus-galli var. crus-galli, herbicidal effect grade [1]: 1 (Herbicidal ratio of 5% or higher and lower than 20%)
- I: Avena fatua, herbicidal effect grade (Avena fatua): 0 (Herbicidal ratio of 5% or lower (almost no effect))
- J: Alopecurus myosuroides, herbicidal effect grade (Alopecurus myosuroides): 0 (Herbicidal ratio of 5% or lower (almost no effect))
- K: Lolium multiflorum Lam., herbicidal effect grade (Lolium multiflorum Lam.): 1 (Herbicidal ratio of 5% or higher and lower than 20%)
- L: Apera spica-venti, herbicidal effect grade (Apera spica-venti): 0 (Herbicidal ratio of 5% or lower (almost no effect))
- M: Abutilon theophrasti, herbicidal effect grade (Abutilon theophrasti): 0 (Herbicidal ratio of 5% or lower (almost no effect))
- N: Amaranthus retroflexus, herbicidal effect grade (Amaranthus retroflexus): 0 (Herbicidal ratio of 5% or lower (almost no effect))
- O: Chenopodium album, herbicidal effect grade (Chenopodium album): 0 (Herbicidal ratio of 5% or lower (almost no effect))
- P: Stellaria media, herbicidal effect grade (Stellaria media): 0 (Herbicidal ratio of 5% or lower (almost no effect))
- R: Veronica persica, herbicidal effect grade (Veronica persica): 0 (Herbicidal ratio of 5% or lower (almost no effect))
- c: corn, effect on crop grade (corn): 0 (Herbicidal ratio of 5% or lower (almost no effect))
- d: soybean, effect on crop grade (soybean): 0 (Herbicidal ratio of 5% or lower (almost no effect))
- b: directly sowed rice plant, effect on crop grade (rice plant): 3 (Herbicidal ratio of 40% or higher and lower than 70%)
- e: wheat, effect on crop grade (wheat): 0 (Herbicidal ratio of 5% or lower (almost no effect))
- f: beet, effect on crop grade (beet): 0 (Herbicidal ratio of 5% or lower (almost no effect))
- g: rapeseed, effect on crop grade (rapeseed): 0 (Herbicidal ratio of 5% or lower (almost no effect))

Compound: CON=C(C)CC1CC(O)=C(c2c(C)cc(OCc3ccncc3)cc2C)C1=O (centres unmarked) [6-070]
- herbicidal effect on H (Echinochloa crus-galli var. crus-galli), grade 0-5 [2]: 0 (Herbicidal ratio of 5% or lower (almost no effect))
- herbicidal effect on D (Leptochloa chinensis), grade 0-5 (Leptochloa chinensis): 4 (Herbicidal ratio of 70% or higher and lower than 90%)
- herbicidal effect on E, grade 0-5 (Cyperus difformis): 0 (Herbicidal ratio of 5% or lower (almost no effect))
- effect on crop b (directly sowed rice plant), grade 0-5 [3]: 0 (Herbicidal ratio of 5% or lower (almost no effect))

Compound: CC(=O)CC1CC(O)=C(c2c(C)cc(OCc3ccncc3)cc2C)C1=O (centres unmarked) [7-021]
- herbicidal effect on H (Echinochloa crus-galli var. crus-galli), grade 0-5 [2]: 2 (Herbicidal ratio of 20% or higher and lower than 40%)
- herbicidal effect on D (Leptochloa chinensis), grade 0-5 (Leptochloa chinensis): 2 (Herbicidal ratio of 20% or higher and lower than 40%)
- herbicidal effect on E, grade 0-5 (Cyperus difformis): 0 (Herbicidal ratio of 5% or lower (almost no effect))
- effect on crop b (directly sowed rice plant), grade 0-5 [3]: 0 (Herbicidal ratio of 5% or lower (almost no effect))

Compound: CC(=O)CC1CC(O)=C(c2c(C)cc(C=Cc3ccccc3)cc2C)C1=O (centres unmarked) [7-023]
- Herbicidal effect grade, A: Echinochloa oryzacola Vasing. [4]: 2 (Herbicidal ratio of 20% or higher and lower than 40%)
- Herbicidal effect grade, B: Scirpus juncoides (Scirpus juncoides): 0 (Herbicidal ratio of 5% or lower (almost no effect))
- Herbicidal effect grade, C: Monochoria vaginalis (Monochoria vaginalis): 0 (Herbicidal ratio of 5% or lower (almost no effect))
- Effect grade on crop, a: transplanted rice plant (transplanted rice plant): 1 (Herbicidal ratio of 5% or higher and lower than 20%)
- herbicidal effect on H (Echinochloa crus-galli var. crus-galli), grade 0-5 [2]: 0 (Herbicidal ratio of 5% or lower (almost no effect))
- herbicidal effect on D (Leptochloa chinensis), grade 0-5 (Leptochloa chinensis): 5 (Herbicidal ratio of 90% or more (almost completely withered))
- herbicidal effect on E, grade 0-5 (Cyperus difformis): 0 (Herbicidal ratio of 5% or lower (almost no effect))
- effect on crop b (directly sowed rice plant), grade 0-5 [3]: 0 (Herbicidal ratio of 5% or lower (almost no effect))

Compound: COC(=O)C(C(C)=O)C1CC(O)=C(c2c(F)cc(Br)cc2OC)C1=O (centres unmarked) [7-028]
- H (Echinochloa crus-galli var. crus-galli) herbicidal effect grade ([2]; Table 24): 0 (Herbicidal ratio of 5% or lower (almost no effect))
- D (Leptochloa chinensis) herbicidal effect grade (Leptochloa chinensis; Table 24): 0 (Herbicidal ratio of 5% or lower (almost no effect))
- E herbicidal effect grade (Cyperus difformis; Table 24): 0 (Herbicidal ratio of 5% or lower (almost no effect))
- b (directly sowed rice plant) effect on crop grade ([3]; Table 24): 0 (Herbicidal ratio of 5% or lower (almost no effect))
